Experimental data from patent US9662323B2, “Compounds having muscarinic receptor antagonist and beta2 adrenergic receptor agonist activity” (CHIESI FARMACEUTICI S.p.A., priority 2015, dated 2017).
pKi: −log10 of the molar value.

Tests used:
Human M3 receptor = biological target: T1, Human M3 receptor (Homo sapiens, UniProt P20309); experiment: M3 Receptor Radioligand Binding Assay; conditions: human M3 receptor membranes, [3H]-N-methyl scopolamine; read-out: M3 binding affinity (Ki class)
T1 construct: purchased Perkin Elmer
Experimental: Biological Characterization M3 Receptor Radioligand Binding Assay
The assay was carried out in 96-well polypropylene plates in a volume of 250 ul. […] The final assay concentration of DMSO was 0.5% (v/v). The plates were sealed and incubated for 2 h at room temperature on an orbital shaker (slow speed). Membranes were harvested onto 96-well unifilter GF/C filter plates pre-treated with 0.5% polyethyleneimine (v/v), using a filter manifold, washed four times with 200 ul of assay buffer. The plates were dried before addition of 50 μl of microscint-0, sealed then read in a Trilux Microbeta scintillation counter.

Human β2 adrenoceptor = biological target: T2, Human β2 adrenoceptor (Homo sapiens, UniProt P07550); experiment: β2 Adrenoceptor Radioligand Binding Assay; conditions: human β2 adrenoceptor membranes, 125-I Cyanopindolol; read-out: B2 binding affinity (Ki class)
T2 construct: purchased Perkin Elmer
Experimental: β2 Adrenoceptor Radioligand Binding Assay
The assay was carried out in 96-well polypropylene plates in a volume of 200 ul. The assay buffer used was 25 mM HEPES, 0.5% BSA (w/v), 1 mM EDTA, 0.02% ascorbic acid (v/v), (pH 7.4). The final assay concentration of DMSO was 0.5% (v/v). The plates were sealed and incubated for 1 h at room temperature on an orbital shaker (slow speed). Membranes were harvested onto 96-well unifilter GF/C filter plates pre-treated with 0.5% polyethyleneimine (v/v), using a filter manifold, washed six times with 200 ul of wash buffer containing 10 mM HEPES and 500 mM NaCl. The plates were dried before addition of 50 μl of microscint-0, sealed then read in a Trilux Microbeta scintillation counter. IC50 values are determined from competition curves using a non-linear curve fitting program. Ki values were calculated from IC50 values by the Cheng and Prusoff equation.

T2 sequence (P07550 whole entry): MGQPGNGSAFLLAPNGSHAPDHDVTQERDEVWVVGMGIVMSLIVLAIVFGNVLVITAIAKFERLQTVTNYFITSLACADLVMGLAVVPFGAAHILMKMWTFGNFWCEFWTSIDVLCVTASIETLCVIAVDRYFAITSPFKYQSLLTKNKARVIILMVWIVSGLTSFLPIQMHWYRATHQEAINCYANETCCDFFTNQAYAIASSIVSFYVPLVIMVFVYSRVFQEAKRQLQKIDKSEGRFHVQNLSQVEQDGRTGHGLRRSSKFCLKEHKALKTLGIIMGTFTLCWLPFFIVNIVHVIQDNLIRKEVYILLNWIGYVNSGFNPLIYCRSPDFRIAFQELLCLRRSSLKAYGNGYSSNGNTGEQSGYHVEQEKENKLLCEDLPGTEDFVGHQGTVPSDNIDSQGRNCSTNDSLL
T1 sequence (P20309 whole entry): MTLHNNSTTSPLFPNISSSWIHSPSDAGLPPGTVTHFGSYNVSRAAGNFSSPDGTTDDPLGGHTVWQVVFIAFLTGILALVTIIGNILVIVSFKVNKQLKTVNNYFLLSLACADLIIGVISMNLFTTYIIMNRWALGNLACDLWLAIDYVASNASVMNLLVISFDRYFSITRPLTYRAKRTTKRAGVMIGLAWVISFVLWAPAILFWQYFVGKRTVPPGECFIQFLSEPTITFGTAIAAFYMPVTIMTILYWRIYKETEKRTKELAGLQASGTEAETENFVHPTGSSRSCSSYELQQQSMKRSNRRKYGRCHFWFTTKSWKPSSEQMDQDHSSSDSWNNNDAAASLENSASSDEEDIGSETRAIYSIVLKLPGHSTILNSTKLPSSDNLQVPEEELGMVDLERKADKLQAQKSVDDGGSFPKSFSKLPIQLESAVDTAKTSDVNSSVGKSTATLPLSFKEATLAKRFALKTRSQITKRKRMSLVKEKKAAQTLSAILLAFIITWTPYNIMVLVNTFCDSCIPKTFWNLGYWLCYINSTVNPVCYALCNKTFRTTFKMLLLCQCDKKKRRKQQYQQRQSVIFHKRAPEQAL

For O=C(NCCCNC[C@H](O)c1ccc(O)c2[nH]c(=O)ccc12)c1ccc(COc2ccc(C(=O)N3CC(C(=O)O[C@H]4CN5CCC4CC5)(c4ccccc4)C3)cc2)cc1 [Compound 19A, (R)-Quinuclidin-3-yl 1-(4-((4-((3-(((R)-2-hydroxy-2-(8-hydroxy-2-oxo-1,2-dihydroquinolin-5-yl)ethyl)amino)propyl)carbamoyl)benzyl)oxy)benzoyl)-3-phenylazetidine-3-carboxylate], the pKi (Human M3 receptor) was greater than 9.00 and the pKi (Human β2 adrenoceptor) was greater than 9.00.

O=C(c1ccc(CCNC[C@H](O)c2ccc(O)c3[nH]c(=O)ccc23)cc1)N1CCC(C(=O)O[C@H]2CN3CCC2CC3)(c2ccccc2)CC1 [Compound 20, (R)-Quinuclidin-3-yl 1-(4-(2-(((R)-2-hydroxy-2-(8-hydroxy-2-oxo-1,2-dihydroquinolin-5-yl)ethyl)amino)ethyl)benzoyl)-4-phenylpiperidine-4-carboxylate] was tested, and the pKi (Human M3 receptor) was less than 8.00 and the pKi (Human β2 adrenoceptor) was greater than 9.00.

Work on COc1cc(CNC(=O)c2ccc(C(=O)N3CC(C(=O)O[C@H]4CN5CCC4CC5)(c4ccccc4)C3)cc2)ccc1CNC[C@H](O)c1ccc(O)c2[nH]c(=O)ccc12 [Compound 20A, (R)-Quinuclidin-3-yl 1-(4-((4-((((R)-2-hydroxy-2-(8-hydroxy-2-oxo-1,2-dihydroquinolin-5-yl)ethyl)amino)methyl)-3-methoxybenzyl)carbamoyl)benzoyl)-3-phenylazetidine-3-carboxylate] yielded a pKi (Human M3 receptor) greater than 9.00 and a pKi (Human β2 adrenoceptor) greater than 9.00.

O=C(NCCCCNC[C@H](O)c1ccc(O)c2[nH]c(=O)ccc12)c1ccc(C(=O)N2CCC(C(=O)O[C@H]3CN4CCC3CC4)(c3ccccc3)CC2)s1 [Compound 21, (R)-Quinuclidin-3-yl 1-(5-((4-(((R)-2-hydroxy-2-(8-hydroxy-2-oxo-1,2-dihydroquinolin-5-yl)ethyl)amino)butyl)carbamoyl)thiophene-2-carbonyl)-4-phenylpiperidine-4-carboxylate] gave a pKi (Human M3 receptor) of 8.00 to 9.00 and a pKi (Human β2 adrenoceptor) greater than 9.00.

O=C(c1ccc(OCc2cccc(OCCCCNC[C@H](O)c3ccc(O)c4[nH]c(=O)ccc34)c2)cc1)N1CCC(C(=O)O[C@H]2CN3CCC2CC3)(c2ccccc2)CC1 [Compound 22, (R)-Quinuclidin-3-yl 1-(4-((3-(4-(((R)-2-hydroxy-2-(8-hydroxy-2-oxo-1,2-dihydroquinolin-5-yl)ethyl)amino)butoxy)benzyl)oxy)benzoyl)-4-phenylpiperidine-4-carboxylate] was tested, and the pKi (Human M3 receptor) was 8.00 to 9.00 and the pKi (Human β2 adrenoceptor) was greater than 9.00.

In the case of O=C(NCc1ccc(CNC[C@H](O)c2ccc(O)c3[nH]c(=O)ccc23)cc1)c1ccc(C(=O)N2CCC(C(=O)O[C@H]3CN4CCC3CC4)(c3ccccc3)CC2)cc1 [Compound 23, (R)-Quinuclidin-3-yl 1-(4-((4-((((R)-2-hydroxy-2-(8-hydroxy-2-oxo-1,2-dihydroquinolin-5-yl)ethyl)amino)methyl)benzyl)carbamoyl)benzoyl)-4-phenylpiperidine-4-carboxylate], the pKi (Human M3 receptor) was greater than 9.00 and the pKi (Human β2 adrenoceptor) was 8.00 to 9.00.

For O=C(c1ccc(OCc2ccc(CNC[C@H](O)c3ccc(O)c4[nH]c(=O)ccc34)cc2)cc1)N1CCC(C(=O)O[C@H]2CN3CCC2CC3)(c2ccccc2)CC1 [Compound 24, (R)-Quinuclidin-3-yl 1-(4-((4-((((R)-2-hydroxy-2-(8-hydroxy-2-oxo-1,2-dihydroquinolin-5-yl)ethyl)amino)methyl)benzyl)oxy)benzoyl)-4-phenylpiperidine-4-carboxylate], the pKi (Human M3 receptor) was greater than 9.00 and the pKi (Human β2 adrenoceptor) was greater than 9.00.

Molecule CCN(CCCNC[C@H](O)c1ccc(O)c2[nH]c(=O)ccc12)C(=O)c1ccc(C(=O)N2CCC(C(=O)O[C@H]3CN4CCC3CC4)(c3ccccc3)CC2)cc1 [Compound 25, (R)-Quinuclidin-3-yl 1-(4-(ethyl(3-(((R)-2-hydroxy-2-(8-hydroxy-2-oxo-1,2-dihydroquinolin-5-yl)ethyl)amino)propyl)carbamoyl)benzoyl)-4-phenylpiperidine-4-carboxylate] has a pKi (Human M3 receptor) of 8.00 to 9.00 and a pKi (Human β2 adrenoceptor) of 8.00 to 9.00.

Molecule O=C(c1ccc(OCc2ccc(CCNC[C@H](O)c3ccc(O)c4[nH]c(=O)ccc34)cc2)cc1)N1CCC(C(=O)O[C@H]2CN3CCC2CC3)(c2ccccc2)CC1 [Compound 26, (R)-Quinuclidin-3-yl 1-(4-((4-(2-(((R)-2-hydroxy-2-(8-hydroxy-2-oxo-1,2-dihydroquinolin-5-yl)ethyl)amino)ethyl)benzyl)oxy)benzoyl)-4-phenylpiperidine-4-carboxylate] has a pKi (Human M3 receptor) greater than 9.00 and a pKi (Human β2 adrenoceptor) greater than 9.00.

Work on CN(CCCNC[C@H](O)c1ccc(O)c2[nH]c(=O)ccc12)C(=O)c1ccc(C(=O)N2CCC(C(=O)O[C@H]3CN4CCC3CC4)(c3ccccc3)CC2)s1 [Compound 27, (R)-Quinuclidin-3-yl 1-(5-((3-(((R)-2-hydroxy-2-(8-hydroxy-2-oxo-1,2-dihydroquinolin-5-yl)ethyl)amino)propyl)(methyl)carbamoyl)thiophene-2-carbonyl)-4-phenylpiperidine-4-carboxylate] yielded a pKi (Human M3 receptor) of 8.00 to 9.00 and a pKi (Human β2 adrenoceptor) greater than 9.00.

O=C(c1ccc(C(=O)N(CCCNC[C@H](O)c2ccc(O)c3[nH]c(=O)ccc23)Cc2ccccc2)s1)N1CCC(C(=O)O[C@H]2CN3CCC2CC3)(c2ccccc2)CC1 [Compound 28, (R)-Quinuclidin-3-yl 1-(5-(benzyl(3-(((R)-2-hydroxy-2-(8-hydroxy-2-oxo-1,2-dihydroquinolin-5-yl)ethyl)amino)propyl)carbamoyl)thiophene-2-carbonyl)-4-phenylpiperidine-4-carboxylate] showed a pKi (Human M3 receptor) of 8.00 to 9.00 and a pKi (Human β2 adrenoceptor) greater than 9.00.

CCN(CCCNC[C@H](O)c1ccc(O)c2[nH]c(=O)ccc12)C(=O)c1ccc(C(=O)N2CCC(C(=O)O[C@H]3CN4CCC3CC4)(c3ccccc3)CC2)s1 [Compound 29, (R)-Quinuclidin-3-yl 1-(5-(ethyl(3-(((R)-2-hydroxy-2-(8-hydroxy-2-oxo-1,2-dihydroquinolin-5-yl)ethyl)amino)propyl)carbamoyl)thiophene-2-carbonyl)-4-phenylpiperidine-4-carboxylate] gave a pKi (Human M3 receptor) of 8.00 to 9.00 and a pKi (Human β2 adrenoceptor) greater than 9.00.

In the case of O=C(Cc1ccc(OCCCCNC[C@H](O)c2ccc(O)c3[nH]c(=O)ccc23)cc1)N1CCC(C(=O)O[C@H]2CN3CCC2CC3)(c2ccccc2)CC1 [Compound 30, (R)-Quinuclidin-3-yl 1-(2-(4-(4-(((R)-2-hydroxy-2-(8-hydroxy-2-oxo-1,2-dihydroquinolin-5-yl)ethyl)amino)butoxy)phenyl)acetyl)-4-phenylpiperidine-4-carboxylate], the pKi (Human M3 receptor) was 8.00 to 9.00 and the pKi (Human β2 adrenoceptor) was greater than 9.00.

O=C(NCCC(=O)N1CCC(C(=O)O[C@H]2CN3CCC2CC3)(c2ccccc2)CC1)c1ccc(CNC[C@H](O)c2ccc(O)c3[nH]c(=O)ccc23)cc1 [Compound 31, (R)-Quinuclidin-3-yl 1-(3-(4-((((R)-2-hydroxy-2-(8-hydroxy-2-oxo-1,2-dihydroquinolin-5-yl)ethyl)amino)methyl)benzamido)propanoyl)-4-phenylpiperidine-4-carboxylate] was tested, and the pKi (Human M3 receptor) was 8.00 to 9.00 and the pKi (Human β2 adrenoceptor) was greater than 9.00.

O=C(CCc1ccc(OCCCCNC[C@H](O)c2ccc(O)c3[nH]c(=O)ccc23)cc1)N1CCC(C(=O)O[C@H]2CN3CCC2CC3)(c2ccccc2)CC1 [Compound 32, (R)-Quinuclidin-3-yl 1-(3-(4-(4-(((R)-2-hydroxy-2-(8-hydroxy-2-oxo-1,2-dihydroquinolin-5-yl)ethyl)amino)butoxy)phenyl)propanoyl)-4-phenylpiperidine-4-carboxylate] showed a pKi (Human M3 receptor) greater than 9.00 and a pKi (Human β2 adrenoceptor) greater than 9.00.

Work on Cc1ccc(CN(CCCNC[C@H](O)c2ccc(O)c3[nH]c(=O)ccc23)C(=O)Cc2ccc(CC(=O)N3CCC(C(=O)O[C@H]4CN5CCC4CC5)(c4ccccc4)CC3)cc2)cc1 [Compound 33, (R)-Quinuclidin-3-yl 1-(2-(4-(2-((3-(((R)-2-hydroxy-2-(8-hydroxy-2-oxo-1,2-dihydroquinolin-5-yl)ethyl)amino)propyl)(4-methylbenzyl)amino)-2-oxoethyl)phenyl)acetyl)-4-phenylpiperidine-4-carboxylate] yielded a pKi (Human M3 receptor) greater than 9.00 and a pKi (Human β2 adrenoceptor) of 8.00 to 9.00.

Cc1ccccc1CN(CCCNC[C@H](O)c1ccc(O)c2[nH]c(=O)ccc12)C(=O)Cc1ccc(CC(=O)N2CCC(C(=O)O[C@H]3CN4CCC3CC4)(c3ccccc3)CC2)cc1 [Compound 34, (R)-Quinuclidin-3-yl 1-(2-(4-(2-((3-(((R)-2-hydroxy-2-(8-hydroxy-2-oxo-1,2-dihydroquinolin-5-yl)ethyl)amino)propyl)(2-methylbenzyl)amino)-2-oxoethyl)phenyl)acetyl)-4-phenylpiperidine-4-carboxylate] gave a pKi (Human M3 receptor) greater than 9.00 and a pKi (Human β2 adrenoceptor) greater than 9.00.

Work on Cc1cccc(CN(CCCNC[C@H](O)c2ccc(O)c3[nH]c(=O)ccc23)C(=O)Cc2ccc(CC(=O)N3CCC(C(=O)O[C@H]4CN5CCC4CC5)(c4ccccc4)CC3)cc2)c1 [Compound 35, (R)-Quinuclidin-3-yl 1-(2-(4-(2-((3-(((R)-2-hydroxy-2-(8-hydroxy-2-oxo-1,2-dihydroquinolin-5-yl)ethyl)amino)propyl)(3-methylbenzyl)amino)-2-oxoethyl)phenyl)acetyl)-4-phenylpiperidine-4-carboxylate] yielded a pKi (Human M3 receptor) greater than 9.00 and a pKi (Human β2 adrenoceptor) greater than 9.00.
